The values below come from paper PMC9237828, “Chemically Tuning Resveratrol for the Effective Killing of Gram-Positive Pathogens” (Journal of Natural Products, 2022).

Converted amounts (≈) assume the structure as drawn.

The test system of one experiment is E. faecium LMG16003. As to the kind of experiment: microbe, parasite or virus in culture. It counts as cell-based. Particulars: for MIC: Enterococcus faecium, LMG16003, 20 h, read-out: Minimal Inhibition Concentration (MIC) E. faecium LMG16003.
In another experiment the test system is C. perfringens CECT376. The experiment is described as follows: microbe, parasite or virus in culture. Particulars: for MIC: Clostridium perfringens, CECT376, 24 h, read-out: Minimal Inhibition Concentration (MIC) C. perfringens CECT376. The class given is cell-based.
The subject of the next experiment is S.aureus LMG15975. The experiment is described as follows: microbe, parasite or virus in culture. It counts as cell-based, Staphylococcus aureus. Particulars: for MIC: Staphylococcus aureus, LMG15975, 20 h, read-out: Minimal Inhibition Concentration (MIC) S.aureus LMG15975.
The next experiment relates to E. faecalis V583. The experiment is described as follows: microbe, parasite or virus in culture. The class given is cell-based, Enterococcus faecalis. The settings on record: for MIC: Enterococcus faecalis, V583, 20 h, read-out: Minimal Inhibition Concentration (MIC) E. faecalis V583.
Another experiment relates to S.aureus LMG8224. As to the kind of experiment: microbe, parasite or virus in culture. It counts as cell-based, Staphylococcus aureus. Particulars: for MIC: Staphylococcus aureus, LMG8224, 20 h, read-out: Minimal Inhibition Concentration (MIC) S.aureus LMG8224.
The subject of a further experiment is S.aureus LMG10147. The experiment is described as follows: microbe, parasite or virus in culture. The class given is cell-based, Staphylococcus aureus. The settings on record: for MIC: Staphylococcus aureus, LMG10147, 20 h, read-out: Minimal Inhibition Concentration (MIC) S.aureus LMG10147.
A further experiment has as its system C. tetani CECT4629. As to the kind of experiment: microbe, parasite or virus in culture. The class given is cell-based.
A further experiment relates to B. cereus ATCC10987. The experiment is described as follows: microbe, parasite or virus in culture. The class given is cell-based, Bacillus cereus. Particulars: for MIC: Bacillus cereus, ATCC10987, 20 h, read-out: Minimal Inhibition Concentration (MIC) B. cereus ATCC10987.
The next experiment relates to C. ihumii AP5. As to the kind of experiment: MIC test, anaerobes. It counts as cell-based. Particulars: 24 h; for MIC: read-out: Minimal Inhibition Concentration (MIC) C. ihumii AP5. As for the experimental part: (§1) The resveratrol derivatives were serially diluted in cMHB (BD Difco) in 96-well microplates. Plates were then inoculated with the indicator bacteria at a final concentration of 5 × 10^5 CFU/mL and incubated at 37 °C for 20 h. In the case of the anaerobic bacteria (Clostridium and Clostridioides), the test was performed following the recommendation of CLSI for anaerobes[77] but using RCM medium instead of cMHB. The cultures were cultivated inside an anaerobic chamber at 37 °C for 24 h. All the tests were performed in triplicate.

The test system of another experiment is C. beijerinckii B504. The experiment is described as follows: MIC test, anaerobes. It counts as cell-based. The settings on record: for MIC: Clostridium beijerinckii, B504, 24 h, read-out: Minimal Inhibition Concentration (MIC) C. beijerinckii B504. As for the experimental part:
as §1

The next experiment concerns C. botulinum CECT551. As to the kind of experiment: microbe, parasite or virus in culture. Particulars: for MIC: Clostridium botulinum, CECT551, 24 h, read-out: Minimal Inhibition Concentration (MIC) C. botulinum CECT551. It counts as cell-based.
The next experiment concerns B. cereus ATCC14579. The experiment is described as follows: microbe, parasite or virus in culture. It counts as cell-based, Bacillus cereus. Particulars: for MIC: Bacillus cereus, ATCC14579, 20 h, read-out: Minimal Inhibition Concentration (MIC) B. cereus ATCC14579.
In the next experiment the test system is E. faecalis LMG16216. As to the kind of experiment: microbe, parasite or virus in culture. The class given is cell-based, Enterococcus faecalis. The settings on record: for MIC: Enterococcus faecalis, LMG16216, 20 h, read-out: Minimal Inhibition Concentration (MIC) E. faecalis LMG16216.
The subject of another experiment is C. difficile CECT531. As to the kind of experiment: microbe, parasite or virus in culture. It counts as cell-based, Clostridioides difficile. Particulars: for MIC: Clostridioides difficile, CECT531, 24 h, read-out: Minimal Inhibition Concentration (MIC) C. difficile CECT531.
For another experiment, the system named is E. faecium LMG11423. As to the kind of experiment: microbe, parasite or virus in culture. It counts as cell-based. Particulars: for MIC: Enterococcus faecium, LMG11423, 20 h, read-out: Minimal Inhibition Concentration (MIC) E. faecium LMG11423.
In a further experiment the test system is E. faecalis LMG08222. As to the kind of experiment: microbe, parasite or virus in culture. The class given is cell-based, Enterococcus faecalis. Particulars: for MIC: Enterococcus faecalis, LMG08222, 20 h, read-out: Minimal Inhibition Concentration (MIC) E. faecalis LMG08222.
In experiment [1] the test system is panel of aerobic and anaerobic Gram-positive bacteria. The experiment is described as follows: organism not typed. The class given is cell-based.
A further experiment relates to E. coli LMG8224. The experiment is described as follows: Outer membrane permeabilization test (MIC with or without L-11 peptide).
Where [2] appears, read: Table 1, 128 to 2 μM, RCM medium, anaerobic, 24 h.

3-butyl resveratrol [compound 9]: the “Minimal Inhibition Concentration (MIC) E. faecium LMG16003” value in the experiment on E. faecium LMG16003 was determined as 128 ± 0 µM. Also, the “Minimal Inhibition Concentration (MIC) C. perfringens CECT376” value with C. perfringens CECT376 amounted to 64 ± 0 µM. For the same compound, the “Minimal Inhibition Concentration (MIC) S.aureus LMG15975” value with S.aureus LMG15975 is 32 ± 0 µM. Moreover, in the experiment on E. faecalis V583, the “Minimal Inhibition Concentration (MIC) E. faecalis V583” value was found to be 128 ± 0 µM. Besides, in the experiment on S.aureus LMG8224, the “Minimal Inhibition Concentration (MIC) S.aureus LMG8224” value turned out to be 64 ± 0 µM. Also, in the experiment with S.aureus LMG10147, the “Minimal Inhibition Concentration (MIC) S.aureus LMG10147” value was 64 ± 0 µM. For the same compound, the “Minimal Inhibition Concentration (MIC) C. tetani CECT4629” value with C. tetani CECT4629 (setting [2]) came to 16 ± 0 µM. The “Minimal Inhibition Concentration (MIC) B. cereus ATCC10987” value in the experiment with B. cereus ATCC10987 came to 32 ± 0 µM. Also, the “Minimal Inhibition Concentration (MIC) C. ihumii AP5” value in the experiment on C. ihumii AP5 (Table 1, 128 to 2 μM, RCM medium, anaerobic) is 64 ± 0 µM. Also, the “Minimal Inhibition Concentration (MIC) C. beijerinckii B504” value in the experiment on C. beijerinckii B504 (setting [2]) was found to be 26.6 ± 5.3 µM. In addition, in the experiment with C. botulinum CECT551 (setting [2]), the “Minimal Inhibition Concentration (MIC) C. botulinum CECT551” value turned out to be 32 ± 0 µM. Also, the “Minimal Inhibition Concentration (MIC) B. cereus ATCC14579” value in the experiment with B. cereus ATCC14579 came to 32 ± 0 µM. Also, the “Minimal Inhibition Concentration (MIC) E. faecalis LMG16216” value in the experiment with E. faecalis LMG16216 is 128 ± 0 µM. In addition, the “Minimal Inhibition Concentration (MIC) C. difficile CECT531” value with C. difficile CECT531 is 64 ± 0 µM. Besides, the “Minimal Inhibition Concentration (MIC) E. faecium LMG11423” value with E. faecium LMG11423 was determined as 64 ± 0 µM. The “Minimal Inhibition Concentration (MIC) E. faecalis LMG08222” value in the experiment with E. faecalis LMG08222 amounted to 128 ± 0 µM.

Regarding `CCCCCCCCCCCC(=O)OC[C@H]1O[C@@H](Oc2cc(O)cc(/C=C/c3ccc(O)cc3)c2)[C@H](O)[C@@H](O)[C@@H]1O` [compound 4], the MIC was 53.3 ± 10.6 µM (≈ 30.5 µg/mL) in the experiment on E. faecium LMG16003; 32 µM (≈ 18.3 µg/mL) in the experiment with C. perfringens CECT376; 16 µM (≈ 9.16 µg/mL) in the experiment with S.aureus LMG15975; 8 to 16 µM (≈ 4.58 to 9.16 µg/mL) in experiment [1]; 53.3 ± 10.6 µM (≈ 30.5 µg/mL) in the experiment with E. faecalis V583; 16 µM (≈ 9.16 µg/mL) in the experiment with S.aureus LMG8224. For the same compound, the MIC was 16 µM (≈ 9.16 µg/mL) in the experiment with S.aureus LMG10147; 8 µM (≈ 4.58 µg/mL) in the experiment on B. cereus ATCC10987; 32 µM (≈ 18.3 µg/mL) in the experiment with C. ihumii AP5; 16 µM (≈ 9.16 µg/mL) with C. beijerinckii B504; 8 µM (≈ 4.58 µg/mL) in the experiment with C. botulinum CECT551; 8 µM (≈ 4.58 µg/mL) in the experiment with B. cereus ATCC14579. The MIC in the experiment with E. faecalis LMG16216 was 64 µM (≈ 36.7 µg/mL); in the experiment on C. difficile CECT531, 128 µM (≈ 73.3 µg/mL); in the experiment on E. faecium LMG11423 it was 53.3 ± 10.6 µM (≈ 30.5 µg/mL); in the experiment on E. faecalis LMG08222, 32 µM (≈ 18.3 µg/mL); with E. coli LMG8224 (Escherichia coli, LMG8224, read-out: MIC (μM) L-11 + 0 μM), > 128 µM. In addition, the “MIC (μM) L-11 + 4 μM” value with E. coli LMG8224 (presence of 4 μM L-11 outer-membrane-perturbing peptide) is 6.6 ± 1.3 µM.

Take `CCCCCCCCCCCCCCCCCC(=O)OC[C@H]1O[C@@H](Oc2cc(O)cc(/C=C/c3ccc(O)cc3)c2)[C@H](O)[C@@H](O)[C@@H]1O` [compound 6, piceid stearate]: the MIC with E. faecium LMG16003 worked out at 2.6 ± 0.6 µM (≈ 1.71 µg/mL); with E. faecalis V583, 128 µM (≈ 84.1 µg/mL); in the experiment with E. faecalis LMG16216 it was 128 µM (≈ 84.1 µg/mL); in the experiment with E. faecium LMG11423, 1 µM (≈ 0.657 µg/mL); in the experiment on E. faecalis LMG08222, 16 µM (≈ 10.5 µg/mL).

On to `CCCCOc1ccc(/C=C/c2cc(OS(=O)(=O)O)cc(OS(=O)(=O)O)c2)cc1` [compound 14, 4′-butyl-3,5-disulfate resveratrol], for which the MIC with E. faecium LMG16003 turned out to be 64 µM (≈ 28.4 µg/mL); in the experiment with C. perfringens CECT376 it was 32 µM (≈ 14.2 µg/mL); in the experiment with S.aureus LMG15975, 32 µM (≈ 14.2 µg/mL); with E. faecalis V583, 64 µM (≈ 28.4 µg/mL); in the experiment with S.aureus LMG8224 it was 32 µM (≈ 14.2 µg/mL); with S.aureus LMG10147, 32 µM (≈ 14.2 µg/mL). Moreover, the MIC amounted to 16 µM (≈ 7.11 µg/mL) in the experiment on C. tetani CECT4629 (Clostridium tetani, CECT4629, 24 h, read-out: Minimal Inhibition Concentration (MIC) C. tetani CECT4629); 128 µM (≈ 56.9 µg/mL) in the experiment with B. cereus ATCC10987; 32 µM (≈ 14.2 µg/mL) in the experiment with C. ihumii AP5; 16 µM (≈ 7.11 µg/mL) in the experiment with C. beijerinckii B504; 21.3 ± 5.3 µM (≈ 9.47 µg/mL) in the experiment on C. botulinum CECT551; 128 µM (≈ 56.9 µg/mL) in the experiment on B. cereus ATCC14579. Besides, the MIC came to 16 µM (≈ 7.11 µg/mL) in the experiment with E. faecalis LMG16216, 32 µM (≈ 14.2 µg/mL) in the experiment with C. difficile CECT531, 32 µM (≈ 14.2 µg/mL) in the experiment on E. faecium LMG11423 and 32 µM (≈ 14.2 µg/mL) in the experiment on E. faecalis LMG08222. Also, the “antibacterial activity against the Gram-positive panel” value in experiment [1] is listed as “active against all Gram-positive bacterial strains examined”.
